The text below walks through data of patent publication US5248690A, “Method for treatment of neurodegenerative diseases” (R. J. Reynolds Tobacco Company, priority 1992, dated 1993).

The target in the test is high affinity nicotinic receptors. The test can be described thus: Inhibition of L-[3H]nicotine binding to mouse brain membrane preparations. The conditions noted are these: 10 nM L-[3H]nicotine, 2 hr at 4° C., mouse brain membranes, Ki calculated from IC50 by method of Cheng et al. More on the design: species or system Mice (DBA strain). As to the method:
Mice (DBA strain) were maintained on a 12 hour light/dark cycle and were allowed free access to water and food supplied by Wayne Lab Blox, Madison, Wis. Animals used in the present studies were 60 to 90 days of age and weighed 20 to 25 g. Brain membrane preparations were obtained from pooled brain tissue of both males and females.
Mice were killed by cervical dislocation. Brains were removed and placed on an ice-cold platform. […] Protein was determined by the method of Lowry, et al., J. Biol. Chem., Vol. 193, pp. 265-275 (1951), using bovine serum albumin as the standard.
The binding of L-[^3 H]nicotine was measured using a modification of the method of Romano, et al., Science, Vol. 210, pp. 647-650 (1980) as described previously by Marks, et al., Mol. pharmacol., Vol. 30, pp. 427-436 (1986). The binding of L-[^3 H]nicotine was measured using a 2 hr. incubation at 4° C. […] Nonspecific binding was determined by inclusion of 10 μM nonradioactive nicotine in the incubations. The inhibition of L-[^3 H]nicotine binding by test compounds was determined by including one of eight different concentrations of the test compound in the incubation. […] Inhibition constants (Ki values) were calculated from the IC50 values using the method of Cheng, et al., Biochem. Pharmacol., Vol. 22, pp. 3099-3108 (1973). […]

For `CN1CCCC1c1ccccc1` (racemic) [1-methyl-2-phenylpyrrolidine], the Ki (in general, a measure of affinity in units of concentration, obtained from inhibition or displacement) was 3.5 µM.
